These results are taken from ChEMBL document CHEMBL4334502, “Basimarols A, B, and C, Highly Oxygenated Pimarane Diterpenoids from Basilicum polystachyon” (J Nat Prod, 2019).

Molecules are shown by their SMILES. Active and inactive are the calls of the source. The rule behind the calls is not given here. Some results are limits rather than exact numbers.

One experiment deals with Influenza A virus H3N2. As to the kind of experiment: Antiviral activity against influenza virus H3N2 infected in MDCK cells assessed as reduction in plague formation incubated for 72 hrs by immunofluorescence assay. Format: functional, organism-based.
In another experiment the test system is Dengue virus. As to the kind of experiment: Antiviral activity against DENV infected in African green monkey Vero cells assessed as reduction in plague formation incubated for 72 hrs by immunofluorescence assay. Format: functional, organism-based.
The next experiment concerns Kunjin virus. As to the kind of experiment: Antiviral activity against West Nile virus Kunjin infected in African green monkey Vero cells assessed as reduction in plague formation incubated for 72 hrs by immunofluorescence assay. It is filed as functional.
A further experiment deals with Influenza A virus. As to the kind of experiment: Antiviral activity against influenza virus H1N1 infected in MDCK cells assessed as reduction in plague formation incubated for 72 hrs by immunofluorescence assay. Format: functional, organism-based.
A further experiment deals with NFF. As to the kind of experiment: Cytotoxicity against human NFF cells assessed as reduction in cell viability incubated for 6 days by SRB assay. Conditions: 144 h. Format: cell-based. Background: Sulforhodamine B stains cellular protein and so reports cell mass.
In a further experiment the test system is SK-MEL-28. As to the kind of experiment: Cytotoxicity against human SK-MEL-28 cells assessed as reduction in cell viability incubated for 6 days by SRB assay. It is filed as functional, cell-based. Conditions: SK-MEL-28, 144 h.
For a further experiment, the system named is MCF7. As to the kind of experiment: Cytotoxicity against human MCF7 cells assessed as reduction in cell viability incubated for 6 days by SRB assay. The settings on record: MCF7, 144 h. Format: functional, cell-based.

As to `C=C/C(C)=C/C[C@H]1C(C)=CC[C@@H]2[C@]1(C)CCC[C@@]2(C)C(=O)O`, the IC50 amounted to 18 µM with Influenza A virus H3N2, 1.4 µM in the experiment on Dengue virus, 1.2 µM with Kunjin virus and 4.1 µM in the experiment on Influenza A virus.
Turning to `C=C[C@]1(C)C[C@@]23O[C@@H](OC(C)=O)C4([C@H]2C[C@@H]1O)[C@@H](O)CCC(C)(C)[C@@H]4C(=O)[C@H]3OC(C)=O`, the IC50 in the experiment on NFF is 95 µM; with SK-MEL-28, 158 µM; with MCF7 it was 86 µM. For the same compound, the outcome with Dengue virus was Active.
The like results for `C=C[C@]1(C)C[C@@]2(O)[C@H](CC1=O)C13CO[C@@](O)([C@H]1[C@@](C)(COC(=O)c1ccccc1)CC[C@H]3O)[C@H]2OC(C)=O` were, in that order, 53 µM, 70 µM, 57 µM and “Active”.
Take `C=C1CC[C@@H]2[C@](C)(CO)[C@H](O)CC[C@@]2(C)[C@@H]1C/C=C1/C(=O)OC[C@H]1O` [ANDROGRAPHOLIDE]: the outcome in the experiment on Influenza A virus H3N2 and with Influenza A virus was inactive. Besides, the result in the experiment on Dengue virus was Active. Besides, the IC50 with Kunjin virus came to 100 µM.
With `C=C[C@]1(C)C[C@]2(O)[C@H](OC(C)=O)C(=O)[C@H]3C(C)(C)CC[C@H](O)[C@]3(COC(C)=O)[C@H]2C[C@@H]1OC(C)=O`, the IC50 with NFF was more than 200 µM; in the experiment with SK-MEL-28, more than 200 µM; in the experiment with MCF7 it was 179 µM. The outcome in the experiment with Dengue virus was Active.

In general, IC50 refers to the point on the concentration scale where inhibition reaches its midpoint.
